Data reported in patent publication US6303568A, “Therapeutic antimicrobial polypeptides, their use and methods for preparation” (Helix Biomedix, Inc., priority 1996, dated 2001).
Read-outs that look alike come from different tables or passages of the source. Ends that are not written are not given here.

What was measured:
[1] = system: E. coli E/2/64; assay: In vitro exposure and plate count, E. coli (Example 3); format: cell-based
Protocol: A known number of viable microorganisms were exposed to a known concentration of the antimicrobial agent for a given time period. Following exposure, the undiluted or diluted microorganisms were plated on solid growth media, e.g., agar plates. The plates were incubated and numbers of organisms determined by making plate counts. Comparisons are then made with the non-treated bacteria for evidence of inhibition, mortality, or both. The following Examples give detailed experimental procedures and results for several microorganisms and antimicrobial agents. […] The E. coli is collected in late log phase growth at which the majority of cells are in growth phase at 18-24 hours. […] The mixtures were incubated at room temperature for 1 hour, and then at 37° C. for 30 minutes. The mixtures were diluted to 10^-1 or 10^-3 with serial dilutions at 7 drops per dilution (10 microliters per drop), plated on agar growth media, which is a tryptose agar. The plates were incubated for 3 days at 37° C. Plate counts were then made and the results given below.

[2] = system: Brucella abortus; format: in vivo; details: 0.176 milligrams/day intramuscularly for 4 days from 12th day post infection; sacrificed 16th day post infection
[3] = BALB/C mice
Protocol: The safety of antimicrobial agents according to the present invention was tested according to standard procedures in animal studies.
Six BALB/C mice, 4 to 5 weeks of age, maintained on commercial rodent ration fed ad libidum and in general good health were each inoculated with 1.76 milligrams/day of cecropin C-37 in balanced salt solution intramuscularly for 4 consecutive days. No other change was made in diet or conditions. […] At the end of the fourth day, three of the […] were humanely destroyed and examined. After 30 days, 3 of the 6 were given an additional 1.76 milligrams each.
The remaining mice were all killed 7 days after the last inoculation.
Following the procedure above in Part A, three BALB/C mice were given 110 milligrams/kilogram of body weight of cecropin C-37 injected intramuscularly in balanced salt solution for 6 days. White cell counts and differentials were performed on a daily basis. Ten days after the last inoculation, the mice were again injected intramuscularly with 110 milligrams/kilogram of body weight with Cecropin C-37. […] All three mice were killed 7 days after the final inoculation and tissues were examined.

[4] = system: Brucella abortus; format: cell-based

Compound: lysozyme: lysozyme, tested by itself and combined with cecropins
- Effect on E. coli (growth) ([1]; lysozyme itself at 10 micrograms, 1 milligram, and 10 milligrams per milliliter, 10^-1 and 10^-3 dilutions): positive growth

Compound: CN(C)[C@@H]1C(O)=C(C(N)=O)C(=O)[C@@]2(O)C(O)=C3C(=O)c4c(O)cccc4[C@@](C)(O)[C@H]3C[C@@H]12 [Tetracycline, tetracycline]
- Concentration of Brucella abortus in BALB/c Mouse Spleen Tissue After 4 Days Treatment [2]: 4.4 × 10^3 per gram of spleen

Compound: MPKWKVFKKIEKVGRNIRNGIVKAGPAIAVLGEAKAL-NH2 [Cecropin C-37]
- IgG antibody to the antimicrobial agent ([3]; 1.76 milligrams/day intramuscularly): None of these mice produced detectable levels
- adverse reactions ([3]; 1.76 milligrams/day intramuscularly for 4 consecutive days, observed twice daily): no adverse reactions
- gross pathological changes in organs and at injection sites ([3]; 1.76 milligrams/day intramuscularly, killed 7 days after last inoculation): no gross pathological changes
- Cecropin C-37 antibodies ([3]; 110 milligrams/kilogram intramuscularly): No Cecropin C-37 antibodies were detected
- adverse effects ([3]; 110 milligrams/kilogram intramuscularly for 6 days, again ten days after): no adverse effects
- tissue examination ([3]; 110 milligrams/kilogram intramuscularly, killed 7 days after final inoculation): enlarged spleens but were otherwise unremarkable
- adverse reactions ([3]; additional 1.76 milligrams each after 30 days): No adverse reactions

Compound: KWKVFKKIEKMGRNIRNGIVKAGPAIAVLGEAKAL-NH2 [Cecropin B]
- Effect on E. coli (growth) ([1]; 5 × 10^-6 molar): no growth
- Effect on E. coli (growth) ([1]; lower concentrations of 1 nanomolar and 1 micromolar): positive E. coli growth
- Effect on Brucella abortus (growth) [4]: no growth
